Active and inactive are the calls of the source. No rule for the calls is given here.
Molecular target: Microphthalmia-associated transcription factor (Homo sapiens) (UniProt O75030)
Assay: compounds blocking human MITF signal – biochemical, AlphaScreen, dose response (AID 1259371)
Settings: AlphaScreen biochemical MITF assay, signal inhibition

Sequence of Microphthalmia-associated transcription factor (Homo sapiens) (O75030 whole entry, looked up): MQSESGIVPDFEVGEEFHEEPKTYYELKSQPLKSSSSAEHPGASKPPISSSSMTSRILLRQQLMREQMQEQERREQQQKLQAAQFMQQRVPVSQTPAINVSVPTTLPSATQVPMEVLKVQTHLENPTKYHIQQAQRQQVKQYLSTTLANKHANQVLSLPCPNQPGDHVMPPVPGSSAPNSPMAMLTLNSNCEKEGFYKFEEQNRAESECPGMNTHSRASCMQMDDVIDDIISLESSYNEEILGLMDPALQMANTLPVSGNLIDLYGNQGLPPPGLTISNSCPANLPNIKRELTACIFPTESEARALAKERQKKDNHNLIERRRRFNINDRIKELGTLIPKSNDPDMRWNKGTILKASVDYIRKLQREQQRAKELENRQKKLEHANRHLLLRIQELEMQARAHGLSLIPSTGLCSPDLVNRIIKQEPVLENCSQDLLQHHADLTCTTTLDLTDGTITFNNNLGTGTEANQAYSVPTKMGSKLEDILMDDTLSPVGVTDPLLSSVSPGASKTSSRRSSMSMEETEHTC

| SMILES | IC50 |
| --- | --- |
| C[C@@H]1NC(=O)[C@H]2CN(C(=O)NCc3ccccc3)CCN2C1=O | inactive |
| CN(N=O)c1cc(O)ccc1O | 98.7 nM |
| C/C(N)=C(/C#N)C(=O)COC(=O)c1c2c(nc3ccccc13)/C(=C/c1ccco1)CC2 | 443 nM |
| NC(=O)c1ccc2nc(-c3cccs3)sc2c1 | > 6180 nM (inactive) |
| O=C(O)c1cc(N=Cc2ccco2)ccc1O | 778 nM |
| Cn1c(SCc2cc(=O)n3c(n2)sc2ccccc23)nnc1C(F)(F)F | inactive |
| COc1cccc(COC(=O)Nc2cc(F)c(-c3cn[nH]c3)cc2OCCN(C)C)c1 | inactive |
| CN(c1cccc(NS(=O)(=O)c2ccc([N+](=O)[O-])cc2)c1)S(C)(=O)=O | > 6480 nM (inactive) |
| N#Cc1cc([N+](=O)[O-])ccc1NC(=O)COC(=O)c1cc(-c2ccco2)nc2ccccc12 | inactive |
| Nc1ccc(NCCO)c(N)c1 | inactive |
| COc1cc(C(=O)N2CCN(Cc3ccccc3C)CC2)cc(OC)c1OC | > 5620 nM (inactive) |
| COc1cc(OC)c(C(=O)OC2CCCC2=O)cc1OC (configuration not stated) | inactive |
| Cc1ccc(C(=O)N/C(=C/c2ccc([N+](=O)[O-])o2)C(=O)O)cc1 | inactive |
| O=C(OCN1C(=O)c2ccccc2C1=O)c1cc2c(s1)CCC2 | 734 nM |
| O=C(/C=C/c1ccco1)Nc1cccc(NC(=O)/C=C/c2ccco2)n1 | 10.4 nM |
| COc1cccc(CN2CCN(C(=O)c3ccc(F)cc3)CC2)c1 | inactive |
| C[C@H]1C(=O)N2CCN(C(=O)NCc3ccccc3)C[C@@H]2C(=O)N1C | inactive |
| Cc1ccc(NC(=O)COC(=O)CCC(=O)Nc2sc3c(c2C(N)=O)CCC3)cc1F | inactive |
| O=C(NC1CCCCC1)N1CCN2C(=O)[C@@H]3CCCN3C(=O)[C@H]2C1 | inactive |
| Cc1ccc(CCC(=O)Nc2ccc(-c3cn4c5c(nnc4n3)CCCC5)cc2)o1 | 306 nM |
| N#C/C(=C(/O)COC(=O)c1cc2c(s1)CCC2)c1nc2ccccc2[nH]1 | 693 nM |
| Cc1cccc(C(=O)Nc2c3c(nn2-c2ccc(F)cc2)CSC3)c1 | > 5530 nM (inactive) |
| O=Cc1cccn1-c1ccc(C(=O)O)cc1 | inactive |
| Oc1ccc2c(c1)C1CCCC1(N1CCOCC1)O2 (configuration not stated) | inactive |
| COc1cc(/C=C2\C(C)=C([N+](=O)[O-])CS2(=O)=O)ccc1O | 30.8 nM |
| Cc1ccc(O)c(NC(=S)NC(=O)/C=C/c2ccco2)c1 | > 6480 nM (inactive) |

| SMILES | IC50 |
| --- | --- |
| CC(C)C[C@H]1C(=O)N2CCN(C(=O)NC3CCCCC3)C[C@@H]2C(=O)N1C | > 2160 nM (inactive) |
| CCN(CC)CC(=O)Nc1ccc(OC)cc1 | > 6480 nM (inactive) |
| c1coc(CNc2ccc3ncc(-c4ccco4)n3n2)c1 | inactive |
| Cc1ncn(-c2ccc(N(C)c3ncc4cccc(-c5ccn[nH]5)c4n3)cc2)n1 | > 6480 nM (inactive) |
| O=C(NC1CCCCC1)N1CCN2C(=O)[C@H]3CCCN3C(=O)[C@H]2C1 | 467 nM |
| N#CC(C#N)=Cc1cccn1-c1ccc(C(=O)O)cc1 | inactive |
| O=C(OCCCC(=O)N1CCOCC1)c1cc(-c2ccco2)nc2ccccc12 | inactive |
| O=C(CCCCC1SCC2NC(=O)NC21)NC1(c2ccc(F)cc2)CCCC1 (configuration not stated) | inactive |
| O=C(NCc1ccccc1)N1CCN2C(=O)[C@H]3CCCN3C(=O)[C@H]2C1 | inactive |
| O=C(Nc1ccc(C(=O)Nc2ccc(C(=O)Nc3ccc(S(=O)(=O)O)c4cc(S(=O)(=O)O)cc(S(=O)(=O)O)c34)cc2)cc1)Nc1ccc(C(=O)Nc2ccc(C(=O)Nc3ccc(S(=O)(=O)O)c4cc(S(=O)(=O)O)cc(S(=O)(=O)O)c34)cc2)cc1 | 986 nM |
| NC(=O)NC(=O)COC(=O)c1c2c(nc3ccccc13)/C(=C\c1ccco1)CCC2 | 349 nM |
| O=C1Nc2ccc(S(=O)(=O)NCc3ccccc3)cc2C1=O | inactive |
| Brc1c(OCCN2CCNCC2)ccc2ccccc12 | inactive |
| CC(=O)NCC(c1cccs1)S(=O)(=O)c1ccc(C)cc1 (configuration not stated) | inactive |
| CCS(=O)(=O)NCC(c1cccs1)S(=O)(=O)c1ccc(C)cc1 (configuration not stated) | 804 nM |
| Cc1cccc(CN2CCN(S(=O)(=O)c3ccccc3[N+](=O)[O-])CC2)c1 | > 5080 nM (inactive) |
| O=S(=O)(c1ccccc1C(F)(F)F)N1CCC(c2nc3ccccc3[nH]2)CC1 | 470 nM |
| CCOC(=O)C1C2NC(=S)N(CC)C1(C)Oc1ccc(Cl)cc12 (configuration not stated) | inactive |
| CCOc1ncccc1C(=O)OCC(=O)Nc1oc(-c2ccco2)c(-c2ccco2)c1C#N | 557 nM |
| O=C(/C=C/c1ccco1)NCCCCNC(=O)/C=C/c1ccco1 | 180 nM |
| Nc1ccc(C(=O)O)c(O)c1 | 63.5 nM |
| CN(C)CCN(C(=O)OCc1ccccc1)c1cc(-c2cn[nH]c2)ccc1NC(=O)OCc1ccccc1 | inactive |
| C=CCc1cc(Cl)ccc1OCCOCCNCCOC | > 6480 nM (inactive) |
| CC(C)[C@H]1NC(=O)[C@H]2CN(C(=O)NC3CCCCC3)CCN2C1=O | inactive |
| O=C1N[C@H](Cc2ccc(O)cc2)C(=O)N2CCN(C(=O)NC3CCCCC3)C[C@H]12 | > 2160 nM (inactive) |
| CCn1ccnc1CN1CCN(Cc2cccc(OC)c2)C(CCO)C1 (configuration not stated) | > 6480 nM (inactive) |

| SMILES | IC50 |
| --- | --- |
| CCOc1cccc(OCC)c2c(C)[n+](C)c(C)c1-2 | 58.2 nM |
| O=c1cc(/C=C/c2ccc(O)cc2)nc2nn[nH]n12 | inactive |
| CCOC(=O)N1CCC(NC(=O)CCc2nc(C3=CCN(C)CC3)no2)CC1 | inactive |
| O=C1OC(c2cc(C3=N/C(=C\c4ccccc4)C(=O)O3)cc(C3=N/C(=C/c4ccccc4)C(=O)O3)c2)=N/C1=C\c1ccccc1 | 819 nM |
| CCOC(=O)c1cc(N2C(=O)C3C4C=CC(C4)C3C2=O)ccc1Cl (configuration not stated) | inactive |
| c1ccc2c(c1)OCC(c1nc3c(-c4ccncc4)cncc3[nH]1)O2 (configuration not stated) | > 2160 nM (inactive) |
| O=C(c1cccc(F)c1)N1CCN(Cc2ccncc2)CC1 | > 5660 nM (inactive) |
| O=c1c2ccccc2nc(-c2ccccc2)n1-c1ccccc1O | > 6500 nM (inactive) |
| O=C1N[C@@H](CSCc2ccccc2)C(=O)N2CCN(C(=O)NCc3ccccc3)C[C@H]12 | 394 nM |
| COC(=O)C1=C(C(=O)OC)C2c3ccccc3C=CN2C(C(=O)OC)=C1C(=O)OC (configuration not stated) | > 4070 nM (inactive) |
| c1ccc(COc2ccc(OCCCCn3ccnc3)cc2)cc1 | > 6480 nM (inactive) |
| CCC12c3ccccc3C(c3ccccc31)C1C(=O)NC(=O)C12 (configuration not stated) | > 2160 nM (inactive) |
| c1cncc(CNc2nc(Nc3ccc(N4CCOCC4)cc3)c3ncn(C4CCCCC4)c3n2)c1 | > 4840 nM (inactive) |
| O=C(/C=C/c1ccco1)NC(=S)Nc1cc(C(=O)O)ccc1Cl | 146 nM |
| C=CC1=C(C)C2=Cc3c(C=C)c(C)c4[n]3[Sn+2][n]3c(c(C)c(CCC(=O)O)c3=CC3=NC(=C4)C(C)=C3CCC(=O)O)=CC1=N2 | inactive |
| CCOC(=O)C1C2NC(=S)N(c3ccc(CC)cc3)C1(C)Oc1c(OCC)cccc12 (configuration not stated) | > 5530 nM (inactive) |
| CC1=C/C(=N\N=C2\NC(=O)C(CC(=O)Nc3ccc(C(=O)O)cc3)S2)CC(C)(C)C1 (configuration not stated) | 334 nM |
| COc1ccc(CN2CCN(Cc3ccccc3OC)CC2)cc1 | > 7330 nM (inactive) |
| O=C1N[C@@H](CC2CCCCC2)C(=O)N2CCN(C(=O)NCc3ccccc3)C[C@H]12 | > 2160 nM (inactive) |
| O=c1[nH]cccc1-c1ccc(Nc2nccc(-c3ccc4nc(C5CC5)[nH]c(=O)c4c3)n2)cc1 | inactive |
| NC(=O)c1ccc(N=Cc2cc3c(cc2[N+](=O)[O-])OCO3)cc1 | inactive |
| O=C(COC(=O)/C=C/c1ccco1)COC(=O)/C=C/c1ccco1 | 122 nM |
| CC(=O)Oc1cc(C(=O)OCC(=O)Nc2ccc(C)cc2)cc(OC(C)=O)c1OC(C)=O | inactive |
| O=C(NC1CCN(Cc2ccccc2)CC1)c1ccc2nc(-c3cccs3)sc2c1 | > 6380 nM (inactive) |
| COc1c(O)cc(O)cc1O | inactive |
| O=C(NCCO)c1ccc2nc(-c3ccco3)c(-c3ccco3)nc2c1 | 396 nM |

| SMILES | IC50 |
| --- | --- |
| NC(=O)c1ccccc1NC(=S)NC(=O)/C=C/c1ccco1 | 471 nM |
| O=C(OC1(C(F)(F)F)C(=O)Nc2cc3c(cc21)OCO3)c1ccc(Cl)nc1 (configuration not stated) | 179 nM |
| NC(=O)COC(=O)c1cc2c(s1)CCC2 | inactive |
| Cc1ccc(C(=O)Nc2ccc([N+](=O)[O-])cn2)o1 | > 6480 nM (inactive) |
| O=C1N[C@H](CO)C(=O)N2CCN(C(=O)NCc3ccccc3)C[C@H]12 | 526 nM |
| COC(=O)c1ccc(=O)c2nc3/c(=C/O)c(O)cc(=O)c3[nH]c12 | 259 nM |
| O=C(COC(=O)COc1ccc(Cl)cc1)NCc1ccco1 | > 2400 nM (inactive) |
| CCCCOc1ccc(C(=O)N/C(=C/c2ccco2)C(=O)O)cc1 | inactive |
| CCc1ccc(NC(=O)CCc2nc(C3=CCN(C)CC3)no2)cc1 | inactive |
| O=P(O)(O)C(Sc1ccc(Cl)cc1)P(=O)(O)O | 62.6 nM |
| O=C(O)/C=C/c1ccc([N+](=O)[O-])o1 | inactive |
| N#CC1=C(N)n2c(s/c(=C\c3ccco3)c2=O)=C(C#N)C1c1ccco1 (configuration not stated) | 3.85 nM |
| O=C1S/C(=C\c2ccco2)C(=O)N1c1ccccc1Cl | 809 nM |
| Cc1ccc(N2C(=O)c3ccccc3NC2c2cccc([N+](=O)[O-])c2)cc1 (configuration not stated) | > 5150 nM (inactive) |
| O=C(O)c1cc(N/N=C/c2ccc(N3CCOCC3)s2)ccc1Cl | 116 nM |
| NS(=O)(=O)c1ccc(N=Cc2cc3c(cc2[N+](=O)[O-])OCO3)cc1 | inactive |
| O=C1N[C@H](Cc2ccccc2)C(=O)N2CCN(C(=O)NC3CCCCC3)C[C@H]12 | 873 nM |
| COc1cccc(CC(=O)Nc2nnc(-c3ccco3)c(-c3ccco3)n2)c1 | 113 nM |
| O=C(N/N=C/C=C/c1ccco1)c1ccncc1 | 24.5 nM |
| O=C(CCc1ccco1)Nc1ccc(-c2cn3c4c(nnc3n2)CCCC4)cc1 | 32 nM |
| NC(=O)/C(=C\c1cccc([N+](=O)[O-])c1)NC(=O)c1ccc(Br)cc1 | > 6480 nM (inactive) |
| c1ccc2c(c1)ncn2CC1CCN(Cc2cn3ccccc3n2)CC1 | inactive |
| O=C(NCCc1ccc(O)cc1)c1ccnc(-c2cccs2)c1 | inactive |
| C[C@@H](OCc1ccccc1)[C@@H]1NC(=O)[C@H]2CN(C(=O)Nc3cccc(F)c3)CCN2C1=O | inactive |

— PubChem BioAssay AID1259371 (The Scripps Research Institute Molecular Screening Center, 2018)
